Assays:
[1] = target: interaction of gp96 and AIMP1 (Mus musculus, UniProt P08113); assay: ELISA assay of gp96-AIMP1 interaction; type: binding, murine
Description: FIGS. 1 to 9 represent suppression of cell surface gp96 by GPM1 reduces DC maturation and B220^+ population in gp96tm transgenic mice. (FIG. 1) Chemical structure of GPM1 (Formula 2) and negative control (NC1, Formula 16) used in this study. (FIG. 2) The dose-dependent effect of GPM1 or NC1 on the AIMP1-gp96 interaction using ELISA method as described. The indicated concentrations of the two compounds and biotin-conjugated murine gp96 were added to AIMP1 coated on the surface of microtiter wells, and gp96 bound to AIMP1 was detected with strepavidin-conjugated peroxidase. (FIG. 3) The binding of GPM1 to gp96 was examined by surface plasmon resonance (SPR). GPM1 at the indicated concentrations was injected to immobilized gp96 and the binding was measured using Biacore 3000. The response data were processed using data from a reference surface and buffer injections. Each concentration was tested in triplicate. (FIG. 4) RAW24.7 cells were treated with 10 μM GPM1 for 24 h. Cell lysates were immunoprecipitated with control IgG or anti-gp96 antibody and the immunoprecipitated proteins were immunoblotted with anti-KDELR1, antiAIMP1 and gp96 antibodies. WCL means whole cell lysate. (FIG. 5) Splenocytes isolated from C57BL/6 mice were treated with vehicle (5% DMSO in PBS), GPM1, or NC1 (10 μM, 24 h), stained for cell surface gp96, and followed by flow cytometry. (FIG. 6) AIMP1^+/+ or AIMP1^−/− mouse splenocytes (2×10^5 cells) were treated with vehicle, GPM1, or NC1 (10 μM, 24 h), fixed, and then co-cultured with WT bone marrow-derived DCs (1×10^4 cells) for 16 h. TNFα secreted from BMDCs was quantified by ELISA. (FIG. 7) Percentage of gp96^+ MHC class II^+ cell population in splenocytes from gp96tm transgenic female mice treated with vehicle (control) (n=9), GPM1 (n=9), and dexamethasone (n=7) at 30 mg/kg. (FIG. 8) Cell surface ICOSL of CD11b^+CD11c^+ (myeloid DCs), CD11b^−CD11c^+ (lymphoid DCs), and CD11b^+CD11c^− (macrophages) cell populations in splenocytes from gp96tm transgenic female mice treated with vehicle (n=9) and GPM1 (n=9) at 30 mg/kg. (FIG. 9) Percentage of B220^+, MHC class II^+, CD4^+, CD8^+, CD4 and CD8 double negative cell populations in splenocytes from gp96tm transgenic female mice treated with vehicle (n=9), GPM1 (n=9), and dexamethasone (n=7) at 30 mg/kg. Student t-test P values comparing GPM1-treated mice with control are indicated.
96-well plates (Maxisorp., F96; Nunc) were coated with 500 ng/well AIMP1 in PBS (pH 7.4). After washing, the remaining sites were blocked with PBS containing 1% BSA for 1 h. Binding of 10 ng/well biotin-conjugated gp96 was performed in Tris buffer (25 mM Tris, 10 mM NaCl and 0.4% Triton X-100). Each of the 6,580 compounds was added to the well at 100 nM and the plates were washed and incubated with HRP conjugated streptavidin in PBS containing 0.1% BSA and 0.1% Tween 20 for 30 min. The plates were washed, and then substrate was added to each well. The absorbance was monitored at 450 nm.
To identify chemicals that can affect membrane translocation of gp96, the present inventors employed the interaction of gp96 with AIMP1 as the screening target. For this screening, the present inventors chose 6,482 chemicals with different pharmacophore representing 150,000 different chemicals deposited in Korea Chemical Bank and identified the compounds that can inhibit the interaction of the two proteins. For the screening, the present inventors set up a modified ELISA method using recombinant AIMP1 and gp96 proteins as described in Experimental methods. Each of the tested compounds gave different effect on the interaction of the two proteins (FIG. 19). And the present inventors have selected 12 compounds that inhibited the interaction more than 95% of the control at 0.1 μM (Table 1). The present inventors obtained 1251 additional compounds derived from these 12 initial hits and tested them again for their activities against the gp96-AIMP1 interaction.

[2] = target: T1, interaction of gp96 with KDELR1 (Mus musculus, UniProt P08113); assay: Co-immunoprecipitation of gp96 with KDELR1 in RAW24.7 cells; type: cell-based; conditions: 10 μM, 24 h
T1 construct: endogenous in cells; host or cells: RAW24.7 (RAW264.7) cells
Description: FIGS. 1 to 9 represent suppression of cell surface gp96 by GPM1 reduces DC maturation and B220^+ population in gp96tm transgenic mice. (FIG. 1) Chemical structure of GPM1 (Formula 2) and negative control (NC1, Formula 16) used in this study. (FIG. 2) The dose-dependent effect of GPM1 or NC1 on the AIMP1-gp96 interaction using ELISA method as described. The indicated concentrations of the two compounds and biotin-conjugated murine gp96 were added to AIMP1 coated on the surface of microtiter wells, and gp96 bound to AIMP1 was detected with strepavidin-conjugated peroxidase. (FIG. 3) The binding of GPM1 to gp96 was examined by surface plasmon resonance (SPR). GPM1 at the indicated concentrations was injected to immobilized gp96 and the binding was measured using Biacore 3000. The response data were processed using data from a reference surface and buffer injections. Each concentration was tested in triplicate. (FIG. 4) RAW24.7 cells were treated with 10 μM GPM1 for 24 h. Cell lysates were immunoprecipitated with control IgG or anti-gp96 antibody and the immunoprecipitated proteins were immunoblotted with anti-KDELR1, antiAIMP1 and gp96 antibodies. WCL means whole cell lysate. […] TNFα secreted from BMDCs was quantified by ELISA. […]

interaction of gp96 and AIMP1, sequence (P08113 22-802): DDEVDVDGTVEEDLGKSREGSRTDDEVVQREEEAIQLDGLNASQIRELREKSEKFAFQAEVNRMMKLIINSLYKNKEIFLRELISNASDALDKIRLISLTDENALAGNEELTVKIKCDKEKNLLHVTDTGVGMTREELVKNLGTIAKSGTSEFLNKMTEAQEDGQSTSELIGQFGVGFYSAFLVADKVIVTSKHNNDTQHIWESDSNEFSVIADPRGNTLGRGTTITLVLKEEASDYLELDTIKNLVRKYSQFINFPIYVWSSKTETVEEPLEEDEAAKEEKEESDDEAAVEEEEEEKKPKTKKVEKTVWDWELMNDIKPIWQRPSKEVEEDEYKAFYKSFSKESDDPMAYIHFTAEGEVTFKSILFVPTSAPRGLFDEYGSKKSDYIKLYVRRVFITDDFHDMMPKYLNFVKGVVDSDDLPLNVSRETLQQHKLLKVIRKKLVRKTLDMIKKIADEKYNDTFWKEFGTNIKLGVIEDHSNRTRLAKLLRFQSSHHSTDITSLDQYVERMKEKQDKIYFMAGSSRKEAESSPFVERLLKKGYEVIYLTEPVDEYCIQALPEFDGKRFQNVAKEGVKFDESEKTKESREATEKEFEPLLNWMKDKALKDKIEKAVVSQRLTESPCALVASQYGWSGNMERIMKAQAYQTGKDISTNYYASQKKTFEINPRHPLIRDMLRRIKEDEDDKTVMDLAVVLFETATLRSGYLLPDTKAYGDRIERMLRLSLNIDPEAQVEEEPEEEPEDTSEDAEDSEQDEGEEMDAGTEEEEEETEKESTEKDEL
T1 sequence (P08113 22-802): as above

In the case of `COC(=O)[C@@H](Oc1nc(OC)cc(OC)n1)C(C)C` [GPM1, (S)-methyl 2-(4,6-dimethoxypyrimidin-2-yloxy)-3-methylbutanoate], the IC50 ([1]; dose-dependent effect, ELISA, read-out: 50% inhibition of the interaction of gp96 and AIMP1) is reported as about 30 nM, the inhibition at 0.1 µM ([1]; read-out: Inhibition rate (at 100 nM; %)) is reported as 95% and the “interaction of gp96 with KDELR1” value ([2]; RAW24.7 cells, co-immunoprecipitation) is reported as “increased”. The “cellular levels of gp96, KDER1 and AIMP1” value ([2]; whole cell lysate) was “did not affect”.
